Reference: patent US11034718B2, “C-3 novel triterpenone with C-17 reverse amide derivatives as HIV inhibitors” (HETERO LABS LIMITED, priority 2015, dated 2021)
Counter-ions that a name gives are not always drawn. Like-named read-outs stand apart in the source and are kept apart here.

System: HIV-1 strain 92HT599
Experiment: Antiviral activity against HIV-1 strain 92HT599 in MT2 cells (p24 estimation)
Type: cell-based
Settings: HIV-1 92HT599, ~96 hours
Protocol: Example 77: Evaluation of Compounds Antiviral Activity Against HIV-1 Strain 92HT599 in MT2 Cells
MT2 cells were infected with HIV-1 strain 92HT599 (10 TCID 50/30000 cells). The infected cells were plated at the concentration of 30,000 cells per well in 96 well plate. Test compound was added to the micro plate in defined format with the final concentration of DMSO (vehicle) is not more than 1%. Incubation was carried out in CO2 incubator for ˜96 hours for viral infection. At the end of incubation period an aliquot from each well was taken for p24 estimation. The quantitation of p24 is an index for antiviral activity of the compound. Percent inhibition was calculated with reference to control values (vehicle controls). p24 estimation was carried out using Advance biosciences kit as per the procedure detailed by supplier.

[1] = Human immunodeficiency virus 1, 0% serum binding assay, read-out: IC50 0% serum
[2] = Human immunodeficiency virus 1, 40% serum binding assay, read-out: IC50 40% serum

| SMILES | IC50 [1] [µM] | IC50 [2] [µM] |
| --- | --- | --- |
| CC(C)C1=C2[C@H]3CC[C@@H]4[C@@]5(C)CC[C@H](OC(=O)[C@H]6C[C@@H](C(=O)O)C6(C)C)C(C)(C)[C@@H]5CC[C@@]4(C)[C@]3(C)CC[C@@]2(NC(=O)C(C)(C)NC(=O)[C@@H](N)C(C)C)CC1=O [Example 36, (1R,3S)-3-((((3aR,5aR,5bR,7aR,9S,11aR,11bR,13aS)-3a-(2-((S)-2-amino-3-methylbutanamido)-2-methylpropanamido)-1-isopropyl-5a,5b,8,8,11a-pentamethyl-2-oxo-3,3a,4,5,5a,5b,6,7,7a,8,9,10,11,11a,11b,12,13,13a-octadecahydro-2H-cyclopenta[a]chrysen-9-yl)oxy)carbonyl)-2,2-dimethylcyclobutane-1-carboxylic acid hydrochloride] | < 0.003 | 0.05 to 0.2 |
| Cc1ccc(C(=O)NC2(C(=O)N[C@@]34CC[C@]5(C)[C@H](CC[C@@H]6[C@@]7(C)CC[C@H](OC(=O)[C@H]8C[C@@H](C(=O)O)C8(C)C)C(C)(C)[C@@H]7CC[C@]65C)C3=C(C(C)C)C(=O)C4)CCC2)cn1 [Example 43, (1R,3S)-3-((((3aR,5aR,5bR,7aR,9S,11aR,11bR,13aS)-1-isopropyl-5a,5b,8,8,11a-pentamethyl-3a-(1-(6-methylnicotinamido)cyclobutane-1-carboxamido)-2-oxo-3,3a,4,5,5a,5b,6,7,7a,8,9,10,11,11a,11b,12,13,13a-octadecahydro-2H-cyclopenta[a]chrysen-9-yl)oxy)carbonyl)-2,2-dimethylcyclobutane-1-carboxylic acid] | < 0.003 | < 0.05 |
| CC(C)C1=C2[C@H]3CC[C@@H]4[C@@]5(C)CC[C@H](OC(=O)[C@H]6C[C@@H](C(=O)O)C6(C)C)C(C)(C)[C@@H]5CC[C@@]4(C)[C@]3(C)CC[C@@]2(NC(=O)C2(NC(=O)c3ccc(Cl)cc3)CCCC2)CC1=O [Example 46, (1R,3S)-3-((((3aR,5aR,5bR,7aR,9S,11aR,11bR,13aS)-3a-(1-(4-chlorobenzamido)cyclopentane-1-carboxamido)-1-isopropyl-5a,5b,8,8,11a-pentamethyl-2-oxo-3,3a,4,5,5a,5b,6,7,7a,8,9,10,11,11a,11b,12,13,13a-octadecahydro-2H-cyclopenta[a]chrysen-9-yl)oxy)carbonyl)-2,2-dimethylcyclobutane-1-carboxylic acid] | < 0.003 | < 0.05 |
| CC(C)C1=C2[C@H]3CC[C@@H]4[C@@]5(C)CC[C@H](OC(=O)[C@H]6C[C@@H](C(=O)O)C6(C)C)C(C)(C)[C@@H]5CC[C@@]4(C)[C@]3(C)CC[C@@]2(NC(=O)C2(NC(=O)c3ccc(Cl)cc3)CCCCC2)CC1=O [Example 48, (1R,3S)-3-((((3aR,5aR,5bR,7aR,9S,11aR,11bR,13aS)-3a-(1-(4-chlorobenzamido)cyclohexane-1-carboxamido)-1-isopropyl-5a,5b,8,8,11a-pentamethyl-2-oxo-3,3a,4,5,5a,5b,6,7,7a,8,9,10,11,11a,11b,12,13,13a-octadecahydro-2H-cyclopenta[a]chrysen-9-yl)oxy)carbonyl)-2,2-dimethylcyclobutane-1-carboxylic acid] | < 0.003 | < 0.05 |
| Cc1ccc(C(=O)NC2(C(=O)N[C@@]34CC[C@]5(C)[C@H](CC[C@@H]6[C@@]7(C)CC[C@H](OC(=O)[C@H]8C[C@@H](C(=O)O)C8(C)C)C(C)(C)[C@@H]7CC[C@]65C)C3=C(C(C)C)C(=O)C4)CCCCC2)cn1 [Example 49, (1R,3S)-3-((((3aR,5aR,5bR,7aR,9S,11aR,11bR,13aS)-1-isopropyl-5a,5b,8,8,11a-pentamethyl-3a-(1-(6-methylnicotinamido)cyclohexane-1-carboxamido)-2-oxo-3,3a,4,5,5a,5b,6,7,7a,8,9,10,11,11a,11b,12,13,13a-octadecahydro-2H-cyclopenta[a]chrysen-9-yl)oxy)carbonyl)-2,2-dimethylcyclobutane-1-carboxylic acid] | < 0.003 | < 0.05 |
| Cc1ccc(C(=O)NC2(C(=O)N[C@@]34CC[C@]5(C)[C@H](CC[C@@H]6[C@@]7(C)CC[C@H](OC(=O)[C@H]8C[C@@H](C(=O)O)C8(C)C)C(C)(C)[C@@H]7CC[C@]65C)C3=C(C(C)C)C(=O)C4)CCCCC2)cc1 [Example 50, (1R,3S)-3-((((3aR,5aR,5bR,7aR,9S,11aR,11bR,13aS)-1-isopropyl-5a,5b,8,8,11a-pentamethyl-3a-(1-(4-methylbenzamido)cyclohexane-1-carboxamido)-2-oxo-3,3a,4,5,5a,5b,6,7,7a,8,9,10,11,11a,11b,12,13,13a-octadecahydro-2H-cyclopenta[a]chrysen 9-yl)oxy)carbonyl)-2,2-dimethylcyclobutane-1-carboxylic acid] | < 0.003 | < 0.05 |
| CC(C)C1=C2[C@H]3CC[C@@H]4[C@@]5(C)CC[C@H](OC(=O)[C@H]6C[C@@H](C(=O)O)C6(C)C)C(C)(C)[C@@H]5CC[C@@]4(C)[C@]3(C)CC[C@@]2(NC(=O)C(C)(C)NC(=O)CN(C)C)CC1=O [Example 59, (1R,3S)-3-((((3aR,5aR,5bR,7aR,9S,11aR,11bR,13aS)-3a-(2-(2-(dimethylamino)acetamido)-2-methylpropanamido)-1-isopropyl-5a,5b,8,8,11a-pentamethyl-2-oxo-3,3a,4,5,5a,5b,6,7,7a,8,9,10,11,11a,11b,12,13,13a-octadecahydro-2H-cyclopenta[a]chrysen-9-yl)oxy)carbonyl)-2,2-dimethylcyclobutane-1-carboxylic acid] | < 0.003 | 0.05 to 0.2 |
| Cc1cccc(C(=O)NC(C)(C)C(=O)N[C@@]23CC[C@]4(C)[C@H](CC[C@@H]5[C@@]6(C)CC[C@H](OC(=O)[C@H]7C[C@@H](C(=O)O)C7(C)C)C(C)(C)[C@@H]6CC[C@]54C)C2=C(C(C)C)C(=O)C3)n1 [Example 60, (1R,3S)-3-((((3aR,5aR,5bR,7aR,9S,11aR,11bR,13aS)-1-isopropyl-5a,5b,8,8,11a-pentamethyl-3a-(2-methyl-2-(6-methylpicolinamido)propanamido)-2-oxo-3,3a,4,5,5a,5b,6,7,7a,8,9,10,11,11a,11b,12,13,13a-octadecahydro-2H-cyclopenta[a]chrysen-9-yl)oxy)carbonyl)-2,2-dimethylcyclobutane-1-carboxylic acid] | < 0.003 | < 0.05 |
| CC(C)C1=C2[C@H]3CC[C@@H]4[C@@]5(C)CC[C@H](OC(=O)[C@H]6C[C@@H](C(=O)O)C6(C)C)C(C)(C)[C@@H]5CC[C@@]4(C)[C@]3(C)CC[C@@]2(NC(=O)C(C)(C)NCc2ccccn2)CC1=O [Example 67, (1R,3S)-3-((((3aR,5aR,5bR,7aR,9S,11aR,11bR,13aS)-1-isopropyl-5a,5b,8,8,11a-pentamethyl-3a-(2-methyl-2-((pyridin-2-ylmethyl)amino)propan amido)-2-oxo-3,3a,4,5,5a,5b,6,7,7a,8,9,10,11,11a,11b,12,13,13a-octadecahydro-2H-cyclopenta[a]chrysen-9-yl)oxy)carbonyl)-2,2-dimethylcyclobutane-1-carboxylic acid] | < 0.003 | < 0.05 |
| CC(C)C1=C2[C@H]3CC[C@@H]4[C@@]5(C)CC[C@H](OC(=O)[C@H]6C[C@@H](C(=O)O)C6(C)C)C(C)(C)[C@@H]5CC[C@@]4(C)[C@]3(C)CC[C@@]2(NC(=O)C(C)(C)NCc2ccc(Cl)cc2)CC1=O [Example 68] | 0.00301 to 0.01 | < 0.05 |
| CC(C)C1=C2[C@H]3CC[C@@H]4[C@@]5(C)CC[C@H](OC(=O)[C@H]6C[C@@H](C(=O)O)C6(C)C)C(C)(C)[C@@H]5CC[C@@]4(C)[C@]3(C)CC[C@@]2(NC(=O)C(C)(C)NCC2(c3ccc(Cl)cc3)CC2)CC1=O [Example 69, (1R,3S)-3-((((3aR,5aR,5bR,7aR,9S,11aR,11bR,13aS)-3a-(2-(((1-(4-chlorophenyl)cyclopropyl)methyl)amino)-2-methylpropanamido)-1-isopropyl-5a,5b,8,8,11a-pentamethyl-2-oxo-3,3a,4,5,5a,5b,6,7,7a,8,9,10,11,11a,11b,12,13,13a-octadecahydro-2H-cyclopenta[a]chrysen-9-yl)oxy)carbonyl)-2,2-dimethylcyclobutane-1-carboxylic acid] | > 0.01 | 0.05 to 0.2 |
| Cc1ccc(NC(=O)NC(C)(C)C(=O)N[C@@]23CC[C@]4(C)[C@H](CC[C@@H]5[C@@]6(C)CC[C@H](OC(=O)[C@H]7C[C@@H](C(=O)O)C7(C)C)C(C)(C)[C@@H]6CC[C@]54C)C2=C(C(C)C)C(=O)C3)cn1 [Example 71, (1R,3S)-3-((((3aR,5aR,5bR,7aR,9S,11aR,11bR,13aS)-1-isopropyl-5a,5b,8,8,11a-pentamethyl-3a-(2-methyl-2-(3-(6-methylpyridin-3-yl)ureido)propanamido)-2-oxo-3,3a,4,5,5a,5b,6,7,7a,8,9,10,11,11a,11b,12,13,13a-octadecahydro-2H-cyclopenta[a]chrysen-9-yl)oxy)carbonyl)-2,2-dimethylcyclobutane-1-carboxylic acid] | < 0.003 | 0.05 to 0.2 |
| CC(C)C1=C2[C@H]3CC[C@@H]4[C@@]5(C)CC[C@H](OC(=O)[C@H]6C[C@@H](C(=O)O)C6(C)C)C(C)(C)[C@@H]5CC[C@@]4(C)[C@]3(C)CC[C@@]2(NC(=O)C(C)(C)NCCN(C)C)CC1=O [Example 73, (1R,3S)-3-((((3aR,5aR,5bR,7aR,9S,11aR,11bR,13aS)-3a-(2-((2-(dimethylamino)ethyl)amino)-2-methylpropanamido)-1-isopropyl-5a,5b,8,8,11a-pentamethyl-2-oxo-3,3a,4,5,5a,5b,6,7,7a,8,9,10,11,11a,11b,12,13,13a-octadecahydro-2H-cyclopenta[a]chrysen-9-yl)oxy)carbonyl)-2,2-dimethylcyclobutane-1-carboxylic acid] | < 0.003 | < 0.05 |
